The supplement of paper PMC13380429

Legend:
Settings in all cases: 72 h
[1] = test system: Calu-3; experiment: drug sensitivity score (DSS) for viability; higher = more toxic; extreme values may be limits of the assay
[2] = test system: Vero E6; experiment: as above
[3] = test system: U2OS; experiment: as above
[4] = test system: Caco-2; experiment: as above
[5] = test system: HepG2; experiment: as above
[6] = test system: Calu-3; experiment: cell viability relative to DMSO; higher = less toxic
[7] = test system: Vero E6; experiment: as above
[8] = test system: U2OS; experiment: as above
[9] = test system: Caco-2; experiment: as above
[10] = test system: HepG2; experiment: as above
[11] = test system: Calu-3; experiment: relative viability EC50 (midpoint between 100% and the lowest measured viability); higher = less toxic
[12] = test system: Vero E6; experiment: as above
[13] = test system: U2OS; experiment: as above
[14] = test system: Caco-2; experiment: as above
[15] = test system: HepG2; experiment: as above

SMILES	drug sensitivity score [1]	drug sensitivity score [2]	drug sensitivity score [3]	drug sensitivity score [4]	drug sensitivity score [5]	cell viability ([6]; 1 nM)	cell viability ([6]; 10 nM)	cell viability ([6]; 100 nM)	cell viability ([6]; 1000 nM)	cell viability ([6]; 10000 nM)	cell viability ([7]; 1 nM)	cell viability ([7]; 10 nM)	cell viability ([7]; 100 nM)	cell viability ([7]; 1000 nM)	cell viability ([7]; 10000 nM)	cell viability ([8]; 1 nM)	cell viability ([8]; 10 nM)	cell viability ([8]; 100 nM)	cell viability ([8]; 1000 nM)	cell viability ([8]; 10000 nM)	cell viability ([9]; 1 nM)	cell viability ([9]; 10 nM)	cell viability ([9]; 100 nM)	cell viability ([9]; 1000 nM)	cell viability ([9]; 10000 nM)	cell viability ([10]; 1 nM)	cell viability ([10]; 10 nM)	cell viability ([10]; 100 nM)	cell viability ([10]; 1000 nM)	cell viability ([10]; 10000 nM)	relative viability EC50 [11]	relative viability EC50 [12]	relative viability EC50 [13]	relative viability EC50 [14]	relative viability EC50 [15]
COc1cc2c(cc1OC)[C@H](C)NCC2 [Isoquinoline,-6,7-dimethoxy-1-methyl-1,2,3,4-tetrahydro,]	0	0	0	0	0	109%	104%	101%	109%	96.1%	97.3%	96.5%	96.8%	96.5%	106%	102%	103%	104%	90.4%	102%	92.5%	89.1%	99.4%	92.3%	112%	100%	95.6%	99.9%	97.4%	101%	> 10 µM	> 10 µM	> 10 µM	> 10 µM	> 10 µM
Cc1cc(-c2ncc(CC(=O)Nc3ccc(-c4cnccn4)cn3)cc2C)ccn1 [LGK-974]	0.8	0	0	1.8	3.7	93.6%	97%	84.2%	90.3%	87.8%	93%	96.6%	90.7%	93.4%	107%	97.4%	96.8%	92.7%	93.4%	91.4%	97.1%	96.6%	89.2%	91.2%	75.2%	95%	99.7%	97.9%	96.9%	39.6%	> 10 µM	> 10 µM	> 10 µM	> 10 µM	2.77 µM
Cc1c(C(=O)NCc2cccnc2)nn(-c2ccc(Cl)cc2Cl)c1-c1ccc(Cl)cc1 [MJ-15]	0	0	0	0	0	90.5%	86.7%	103%	90.4%	97%	92.5%	96.4%	94.8%	90.2%	99.2%	99.2%	96.5%	102%	88.8%	95.3%	88%	87.7%	92.2%	84.3%	79.1%	91.8%	111%	96.2%	101%	98.8%	> 10 µM	> 10 µM	> 10 µM	> 10 µM	> 10 µM
COc1ccc(C2CC(c3ccccc3)=NN2c2ccc(S(N)(=O)=O)cc2)cc1 (stereo not given) [ML141]	0	0	0	0.8	0	85.8%	105%	105%	110%	104%	112%	103%	109%	95.9%	102%	102%	110%	93.3%	108%	94%	94.9%	95.2%	97.6%	97.8%	80.7%	106%	102%	102%	104%	94.8%	> 10 µM	> 10 µM	> 10 µM	> 10 µM	> 10 µM
COCc1nc2c([nH]1)c(=O)n(C)c(=O)n2CC(C)C [MMPX]	0	0	0	0	0	102%	100%	98.1%	103%	96%	97.8%	94.2%	99.2%	97.5%	99.2%	95.8%	100%	96.4%	104%	98.2%	91.8%	91.8%	96.9%	95.7%	96.3%	98%	94%	101%	94.9%	100%	> 10 µM	> 10 µM	> 10 µM	> 10 µM	> 10 µM
CC[N+](C)(CC)CC(=O)Nc1c(C)cccc1C [N-methyllidocaine-iodide]	0	0	0	0	0	98.2%	102%	102%	96.7%	102%	98.7%	96.2%	99.2%	102%	101%	95.1%	101%	96.7%	97.4%	100%	88%	101%	103%	94.8%	102%	106%	95.4%	93.7%	111%	107%	> 10 µM	> 10 µM	> 10 µM	> 10 µM	> 10 µM
CC(C)CCNc1ncccc1C(=O)N1CCN(Cc2ccccc2)CC1 [NSI-189]	0	0	0	0	0	96.3%	108%	92.5%	92.7%	115%	96.5%	95.7%	94.9%	93.3%	104%	97.5%	98%	95.5%	97.8%	99.3%	96.8%	97.8%	100%	92.9%	106%	108%	91.5%	102%	91.2%	103%	> 10 µM	> 10 µM	> 10 µM	> 10 µM	> 10 µM
